Where a name gives a salt, the structure may show the parent alone. Read-outs that look alike come from different tables or passages of the source.
How the values were obtained:
[1] = system: MOLM-14 (expressing FLT3/ITD mutant gene and wild-type FLT3 gene); test: Cell proliferation, Cell Titer-Glo, MOLM-14; format: cell-based; details: Homo sapiens
In short: (§1)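 Read-out: luminescence from ATP in live cells (CellTiter-Glo), taken as viable cell number. Cell lines were built in-house.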

[2] = system: BaF3-FLT3-ITD-F691L (stably expressing FLT3/ITD F691L mutant activated kinase); test: Cell proliferation, Cell Titer-Glo, BaF3-FLT3-ITD-F691L; format: cell-based; details: Mus musculus
Description: (§2) The above cell lines were constructed by our laboratory.
(§3) The number of viable cells was determined by quantification of ATP in living cells using the Cell Titer-Glo® (Promega, USA) chemiluminescence cell viability assay kit.

[3] = system: U937 (expressing wild-type FLT3 gene); test: Cell proliferation, Cell Titer-Glo, U937; format: cell-based, human; details: Homo sapiens, U-937, 72 h
In short: as §1

pro-B cell BaF3 = test: Cell proliferation, Cell Titer-Glo, BaF3; format: cell-based; details: Mus musculus, incubated for 72 hours
In short: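 Chemiluminescent ATP detection (CellTiter-Glo) gave the number of viable cells, used as the measure of proliferation in these laboratory-made BaF3 lines.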

[4] = system: MV4-11 (expressing FLT3/ITD mutant gene); test: Cell proliferation, Cell Titer-Glo, MV4-11; format: cell-based; details: Homo sapiens
In short: as §1

[5] = system: TEL-cKIT-BaF3 (stably expressing cKIT kinase); test: Cell proliferation, Cell Titer-Glo, TEL-cKIT-BaF3; format: cell-based; details: Mus musculus; incubated for 72 hours
In short: (§4)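 Each BaF3 line carrying its activated kinase was made by the authors' own laboratory; the amount of ATP in living cells was quantified by CellTiter-Glo luminescence to determine surviving cell number.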

[6] = system: TEL-FLT3-BaF3 (stably expressing FLT3 kinase); test: Cell proliferation, Cell Titer-Glo, TEL-FLT3-BaF3; format: cell-based; details: Mus musculus
Description: as §2, §3

MOLM-13 cell lines = test: Cell apoptosis, Western Blot of PARP and Caspase 3 cleavage, MOLM-13; format: cell-based, human; details: MOLM-13, 0.1 μM
Excerpt: (§5) Western Blot was used to detect the effects of different concentrations of drugs on protein cleavage of DNA repair enzyme, poly ADP-ribose polymerase PARP and cysteinyl aspartate specific proteinase Caspase 3 at different time intervals (FIG. 3).

[7] = system: Signaling pathways of FLT3 in MV4-11 and MOLM-14 cell lines; test: Effects on upstream and downstream signaling pathways of FLT3 in cells; format: cell-based, human; details: for efficacy compared with Control Compound AC220: AC220 at 0.1 μM; for C-Myc (degradation; for AC220 phosphorylation) / phosphorylation of STAT5 / phosphorylation of protein kinase FLT3: treated for 4 hours
[8] = system: TPR-MET-BaF3 (stably expressing MET kinase); test: Cell proliferation, Cell Titer-Glo, TPR-MET-BaF3; format: cell-based; details: Mus musculus; incubated for 72 hours
In short: as §4

MV4-11 cell lines = test: Cell apoptosis, Western Blot of PARP and Caspase 3 cleavage, MV4-11; format: cell-based, human; details: after 24 hours
Excerpt: as §5

[9] = system: TEL-BaF3-FLT3-D835Y (stably expressing FLT3 D835Y mutant activated kinase); test: Cell proliferation, Cell Titer-Glo, TEL-BaF3-FLT3-D835Y; format: cell-based; details: Mus musculus, 72 h, read-out: TEL-BaF3-FLT3-D835Y IC50 [μM]
In short: as §4

[10] = system: BaF3-FLT3-ITD-D835Y (stably expressing FLT3/ITD D835Y mutant activated kinase); test: Cell proliferation, Cell Titer-Glo, BaF3-FLT3-ITD-D835Y; format: cell-based; details: Mus musculus
Description: as §2, §3

[11] = system: TEL-BaF3-FLT3/ITD (stably expressing FLT3/ITD mutant activated kinase); test: Cell proliferation, Cell Titer-Glo, TEL-BaF3-FLT3/ITD; format: cell-based, mouse; details: Mus musculus, 72 h
In short: as §4

[12] = system: MV4-11 cell lines carrying FLT3/ITD mutant gene; test: Cell cycle distribution by flow cytometry; format: cell-based, human; details: MV4-11, 0.1 μM, 24 hours
[13] = system: TEL-BaF3-BMX (stably expressing BMX kinase); test: Cell proliferation, Cell Titer-Glo, TEL-BaF3-BMX; format: cell-based; details: Mus musculus; incubated for 72 hours
In short: as §4

[14] = system: TEL-BaF3-BLK (stably expressing BLK kinase); test: Cell proliferation, Cell Titer-Glo, TEL-BaF3-BLK; format: cell-based; details: Mus musculus; incubated for 72 hours
In short: as §4

BTK protein kinase = BTK protein kinase (Homo sapiens (Human), UniProt Q06187); test: In vitro inhibition activity (enzymatic activity), ADP-Glo, BTK; format: biochemical; details: ATP 10 μM
Sequence of BTK protein kinase (Q06187 whole entry): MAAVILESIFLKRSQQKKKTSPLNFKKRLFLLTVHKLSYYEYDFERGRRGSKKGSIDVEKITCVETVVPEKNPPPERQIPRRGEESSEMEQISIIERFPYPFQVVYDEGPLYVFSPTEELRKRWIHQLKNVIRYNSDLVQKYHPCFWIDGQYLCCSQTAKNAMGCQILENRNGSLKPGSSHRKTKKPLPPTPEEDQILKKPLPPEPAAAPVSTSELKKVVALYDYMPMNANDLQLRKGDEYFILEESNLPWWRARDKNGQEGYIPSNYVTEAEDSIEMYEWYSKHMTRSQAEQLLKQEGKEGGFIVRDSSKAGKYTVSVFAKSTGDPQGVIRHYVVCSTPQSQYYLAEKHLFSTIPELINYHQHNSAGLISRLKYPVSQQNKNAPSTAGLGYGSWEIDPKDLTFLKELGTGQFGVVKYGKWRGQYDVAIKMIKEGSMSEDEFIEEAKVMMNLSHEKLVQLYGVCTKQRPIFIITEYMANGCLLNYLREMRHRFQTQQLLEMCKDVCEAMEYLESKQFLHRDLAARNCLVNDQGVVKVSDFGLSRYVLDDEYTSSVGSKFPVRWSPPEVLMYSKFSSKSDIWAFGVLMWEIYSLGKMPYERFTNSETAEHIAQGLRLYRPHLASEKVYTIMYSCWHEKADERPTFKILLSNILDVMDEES

[15] = system: TEL-BaF3-EGFR (stably expressing EGFR kinase); test: Cell proliferation, Cell Titer-Glo, TEL-BaF3-EGFR; format: cell-based; details: Mus musculus; incubated for 72 hours
Description: as §2, §3

[16] = system: TEL-JAK1-BaF3 (stably expressing JAK1 kinase); test: Cell proliferation, Cell Titer-Glo, TEL-JAK1-BaF3; format: cell-based; details: Mus musculus; incubated for 72 hours
In short: as §4

[17] = system: BaF3-tel-cKit-T670I (stably expressing cKIT T670I mutant activated kinase); test: Cell proliferation, Cell Titer-Glo, BaF3-tel-cKit-T670I; format: cell-based; details: Mus musculus; incubated for 72 hours
Description: as §2, §3

MOLM-14 cells = test: Nude mouse subcutaneous tumor model with MOLM-14 cells; format: in vivo; details: oral gavage; for tumor growth of the mice: 12.5-50 mg/kg
Description: More than 30 mice (5-week-old) (Balb/c-nu female mice, purchased from Shanghai Snake Experimental Animal Co., Ltd.) were inoculated subcutaneously with MOLM-14 cells in 1×10^7 cells/mouse, the changes in body weight and tumor volume were recorded daily (tumor volume=Tumor length×tumor width^2/2).

[18] = system: BaF3-tel-cKit-D816V (stably expressing cKIT D816V mutant activated kinase); test: Cell proliferation, Cell Titer-Glo, BaF3-tel-cKit-D816V; format: cell-based; details: Mus musculus; incubated for 72 hours
Description: as §2, §3

[19] = system: BaF3-tel-cKit-N882K (stably expressing cKIT N882K mutant activated kinase); test: Cell proliferation, Cell Titer-Glo, BaF3-tel-cKit-N882K; format: cell-based; details: Mus musculus; incubated for 72 hours
Description: as §2, §3

[20] = system: MOLM-13 (expressing FLT3/ITD mutant gene and wild-type FLT3 gene); test: Cell proliferation, Cell Titer-Glo, MOLM-13; format: cell-based; details: Homo sapiens
In short: as §1

[21] = MOLM-14, 72 h, read-out: MOLM-14 IC50 [μM]
[22] = 72 h, read-out: BaF3-FLT3-ITD-F691L IC50 [μM]
[23] = read-out: U937 IC50 [μM], incubated for 72 hours
[24] = MV4-11, 72 h, read-out: MV4-11 IC50 [μM]
[25] = 72 h, read-out: TEL-FLT3-BaF3 IC50 [μM]
[26] = 72 h, read-out: BaF3-FLT3-ITD-D835Y IC50 [μM]
[27] = read-out: TEL-BaF3-FLT3/ITD IC50 [μM], incubated for 72 hours
[28] = MOLM-13, 72 h, read-out: MOLM-13 IC50 [μM]

| SMILES | IC50 [1, 21] [µM] | IC50 [2, 22] [µM] | IC50 [3, 23] [µM] | IC50 (pro-B cell BaF3) [nM] | IC50 [4, 24] [µM] | IC50 [5] [nM] | IC50 [6, 25] [µM] | efficacy compared with Control Compound AC220 [7] | C-Myc (degradation; for AC220 phosphorylation) [7] | phosphorylation of STAT5 [7] | phosphorylation of protein kinase FLT3 [7] | IC50 [8] [nM] | IC50 [9] [µM] | IC50 [10, 26] [µM] | IC50 [11, 27] [µM] | number of cells captured in G0-G1 phase [12] [%] | IC50 [13] [nM] | IC50 [14] [nM] | IC50 (BTK protein kinase) [nM] | IC50 [15] [nM] | also measured |
| --- | --- | --- | --- | --- | --- | --- | --- | --- | --- | --- | --- | --- | --- | --- | --- | --- | --- | --- | --- | --- | --- |
| CC(C)C[C@@H](N)C(=O)N[C@H]1CC[C@@H](n2nc(-c3ccc(Oc4ccccc4)cc3)c3c(N)ncnc32)CC1.Cl (stereo in doubt) [Compound 84, (R)-2-amino-N-(4-(4-amino-3-(4-phenoxyphenyl)-1H-pyrazolo[3,4-d]pyrimidin-1-yl)cis-1,4-cyclohexyl)-4-methylpentanamide hydrochloride] | 0.002 | 0.43 | 3.3 | 750 | 0.01 | 6100 | 0.013 | better efficacy | significant effects on the degradation | very strong inhibitory effects | strongly inhibited | 2900 | 0.002 | 0.28 | < 0.0003 | 89.92 | 63 | 3 | – | – | cleavage of Caspase 3 (MOLM-13 cell lines; after 24 hours): very significant cleavage; cleavage of poly ADP-ribose polymerase PARP (MOLM-13 cell lines; after 24 hours): very significant cleavage; cleavage of Caspase 3 (MV4-11 cell lines; MV 4-11, 0.03 μM): cleavage; cleavage of poly ADP-ribose polymerase PARP (MV4-11 cell lines; MV 4-11, 0.03 μM): relatively significant cleavage |
| CN(C)CC(=O)N1CCC[C@@H](n2nc(-c3ccc(Oc4ccccc4)cc3)c3c(N)ncnc32)C1 [Compound 22, (R)-1-(3-(4-amino-(4-phenoxyphenyl)-1H-pyrazolo[3,4-d]pyrimidin-1-yl)piperidin-1-yl)-2-(dimethylamino)ethanone] | 0.042 | 0.22 | 9.7 | 4900 | 0.022 | 1900 | – | – | significant effects on the degradation | very strong inhibitory effects | strongly inhibited | 2200 | – | 0.17 | 0.011 | 95.78 | 280 | 940 | 190 | 1800 | cleavage of Caspase 3 (MOLM-13 cell lines; after 12 hours): very significant cleavage; cleavage of poly ADP-ribose polymerase PARP (MOLM-13 cell lines; after 12 hours): very significant cleavage; cleavage of Caspase 3 (MV4-11 cell lines; MV 4-11, 0.1 μM): very significant cleavage; cleavage of poly ADP-ribose polymerase PARP (MV4-11 cell lines; MV 4-11, 0.1 μM): significant cleavage; IC50 [16]: 3800 nM; IC50 [17]: 3600 nM; tumor growth of the mice (MOLM-14 cells; 2 to 3 weeks): significantly inhibited; tumor volume growth of the mice (MOLM-14 cells; dose not specified, 2 to 3 weeks): significantly slowed down; IC50 [18]: 1000 nM; IC50 [19]: 1200 nM; IC50 [20, 28]: 0.021 µM |
| CC(C)C[C@@H](N)C(=O)NC1CCC(n2nc(-c3ccc(Oc4ccccc4)cc3)c3c(N)ncnc32)CC1.Cl (stereo partly drawn) [Compound 77, (R)-2-amino-N-(4-(4-amino-3-(4-phenoxyphenyl)-1H-pyrazolo[3,4-d]pyrimidin-1-yl)cyclohexyl)-4-methylpentanamide hydrochloride] | 0.0084 | 0.067 | 3.4 | 2200 | 0.0016 | – | 0.0081 | better efficacy | significant effects on the degradation | very strong inhibitory effects | strongly inhibited | – | 0.021 | 0.073 | – | – | 52 | 2.6 | 128 | – | IC50 ([11]; incubated for 72 hours, read-out: TEL-BaF3-FLT3/ITD IC50): < 0.0003 µM; tumor volume growth of the mice (MOLM-14 cells; 25 mg/kg/day): significantly slowed down; growth of the tumors of the mice (MOLM-14 cells; 50.0 mg/kg/day): almost no growth; tumor growth of the mice (MOLM-14 cells; 2 to 3 weeks): significantly inhibited; IC50 [20, 28]: 0.0027 µM |
| CC(C)[C@@H](N)C(=O)NC1CCC(n2nc(-c3ccc(Oc4ccccc4)cc3)c3c(N)ncnc32)CC1 (stereo partly drawn) [Compound 86, (R)-2-amino-N-(4-(4-amino-(4-phenoxyphenyl)-1H-pyrazolo[3,4-d]pyrimidin-1-yl)cyclohexyl)-3-methylbutanamide hydrochloride] | – | – | – | – | – | 270 | – | – | – | – | – | 3300 | – | – | – | – | < 0.3 | 1 | – | 1300 | IC50 ([1]; MOLM-14, incubated for 72 hours, read-out: MOLM-14 IC50): 0.005 µM; IC50 ([2]; incubated for 72 hours, read-out: BaF3-FLT3-ITD-F691L IC50): 0.15 µM; IC50 ([3]; incubated for 72 hours, read-out: U937 IC50): 1.4 µM; IC50 ([4]; MV4-11, incubated for 72 hours, read-out: MV4-11 IC50): 0.02 µM; IC50 ([6]; incubated for 72 hours, read-out: TEL-FLT3-BaF3 IC50): 0.004 µM; IC50 ([10]; incubated for 72 hours, read-out: BaF3-FLT3-ITD-D835Y IC50): 0.006 µM; IC50 ([20]; MOLM-13, incubated for 72 hours, read-out: MOLM-13 IC50): 0.001 µM |

Reference: patent US10266535B2, “Inhibitor of FLT3 kinase and use thereof” (HEFEI INSTITUTES OF PHYSICAL SCIENCE, CHINESE ACADEMY OF …, priority 2015, dated 2019)
